Target: CX3CR1 (Homo sapiens (Human), UniProt P49238)
Test: hCX3CR1 [3H]-AZD8797 competitive binding assay (filter)
Conditions: CHO-hCX3CR1 membranes, 2 nM [3H]-AZD8797
Experimental: hCX3CR1 [^3H]-AZD8797 Competitive Binding Assay (Filter)
CHO-hCX3CR1 membranes (9 μg per well) together with 2 nM [^3H]-AZD8797 and different concentrations of competitor compound were incubated in 25 mM HEPES (pH 7.4), 10 mM MgCl2, 1 mM CaCl2) and 0.5% BSA in a Corning polystyrene flat-bottom 96-well plate. The plate was incubated for 2 h at room temperature before free radioligand was separated from bound by vacuum filtration on to a Multiscreen HTS+HiFlow FB (Millipore) filter plate, using a Biomek FX (Beckman Coulter). The filter plate was washed in ice-cold 25 mM HEPES (pH 7.4), 5 mM MgCl2, 1 mM CaCl2) and 500 mM NaCl and dried at 50° C. for 1 h. Scintillation cocktail, Optiphase Supermix (PerkinElmer) was added to each well and the radioactivity was measured using a MicroBeta Trilux reader (PerkinElmer). The DMSO concentration was held constant at 1%.

Chain of CX3CR1 (P49238 whole entry): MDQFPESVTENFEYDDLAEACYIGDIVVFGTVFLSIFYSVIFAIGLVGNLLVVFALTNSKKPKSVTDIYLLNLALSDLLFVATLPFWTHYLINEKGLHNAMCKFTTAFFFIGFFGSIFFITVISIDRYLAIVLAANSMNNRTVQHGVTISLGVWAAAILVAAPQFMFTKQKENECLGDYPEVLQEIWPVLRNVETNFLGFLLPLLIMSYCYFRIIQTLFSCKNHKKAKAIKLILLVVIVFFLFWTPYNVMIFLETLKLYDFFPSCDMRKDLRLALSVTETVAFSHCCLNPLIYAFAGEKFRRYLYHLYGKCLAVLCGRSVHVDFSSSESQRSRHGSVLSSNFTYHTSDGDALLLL

| IC50 [µM] | Compound |
| --- | --- |
| 2.53 | CC(C)C[C@H](CO)Nc1nc(C[C@H](C)c2cc(F)c(F)cc2F)nc(NS(C)(=O)=O)n1 (single isomer, unassigned) [Example 35, N-(4-(((R)-1-Hydroxy-4-methylpentan-2-yl)amino)-6-((S*)-2-(2,4,5-trifluorophenyl)propyl)-1,3,5-triazin-2-yl)methanesulfonamide] |
| 0.765 | COc1cc(F)c([C@@H](C)Cc2nc(N[C@@H](CO)CC(C)C)nc(NS(C)(=O)=O)n2)cn1 (single isomer, unassigned) [Example 45, N-(4-((S*)-2-(4-Fluoro-6-methoxypyridin-3-yl)propyl)-6-(((R)-1-hydroxy-4-methylpentan-2-yl)amino)-1,3,5-triazin-2-yl)methanesulfonamide] |
| 0.175 | CC(C)C[C@H](CO)Nc1nc(CC(C)c2ccc(OC(C)C)c(F)c2)nc(NS(C)(=O)=O)n1 (stereo partly drawn) [Example 140, N-(4-(2-(3-Fluoro-4-isopropoxyphenyl)propyl)-6-(((R)-1-hydroxy-4-methylpentan-2-yl)amino)-1,3,5-triazin-2-yl)methanesulfonamide] |
| 6.41 | CC(C)C[C@H](CO)Nc1nc(C[C@H](C)c2cc(F)c(F)c(F)c2)nc(NS(C)(=O)=O)n1 (single isomer, unassigned) [Example 21, N-(4-(((R)-1-Hydroxy-4-methylpentan-2-yl)amino)-6-((S*)-2-(3,4,5-trifluorophenyl)propyl)-1,3,5-triazin-2-yl)methanesulfonamide] |
| 0.354 | CC(C)C[C@H](CO)Nc1nc(CC(C)c2ccc(OC(F)F)nc2)nc(NS(C)(=O)=O)n1 (stereo partly drawn) [Example 127, N-(4-(2-(6-(Difluoromethoxy)pyridin-3-yl)propyl)-6-(((R)-1-hydroxy-4-methylpentan-2-yl)amino)-1,3,5-triazin-2-yl)methanesulfonamide] |
| 0.12 | CC(C)C[C@H](CO)Nc1nc(CC(C)c2ccc(F)c(CO)c2)nc(NS(C)(=O)=O)n1 (stereo partly drawn) [Example 122, N-(4-(2-(4-Fluoro-3-(hydroxymethyl)phenyl)propyl)-6-(((R)-1-hydroxy-4-methylpentan-2-yl)amino)-1,3,5-triazin-2-yl)methanesulfonamide] |
| 0.112 | COc1cccc(C(C)Cc2nc(N[C@@H](CO)CC(C)C)nc(NS(C)(=O)=O)n2)c1 (stereo partly drawn) [Example 92, N-(4-(((R)-1-Hydroxy-4-methylpentan-2-yl)amino)-6-(2-(3-methoxyphenyl)propyl)-1,3,5-triazin-2-yl)methanesulfonamide] |
| 0.685 | CC(C)C[C@H](CO)Nc1nc(C[C@@H](C)c2cc(F)c(Cl)cc2F)nc(NS(C)(=O)=O)n1 (single isomer, unassigned) [Example 38, N-(4-((R*)-2-(4-Chloro-2,5-difluorophenyl)propyl)-6-(((R)-1-hydroxy-4-methylpentan-2-yl)amino)-1,3,5-triazin-2-yl)methanesulfonamide] |
| 3.25 | CC(C)C[C@H](CO)Nc1nc(C[C@H](C)c2c(F)cccc2F)nc(NS(C)(=O)=O)n1 (single isomer, unassigned) [Example 77, N-(4-((S*)-2-(2,6-Difluorophenyl)propyl)-6-(((R)-1-hydroxy-4-methylpentan-2-yl)amino)-1,3,5-triazin-2-yl)methanesulfonamide] |
| 0.029 | CC(C)C[C@H](CO)Nc1nc(CC(C)c2ccc(N)cc2)nc(NS(C)(=O)=O)n1 (stereo partly drawn) [Example 112, N-(4-(2-(4-Aminophenyl)propyl)-6-(((R)-1-hydroxy-4-methylpentan-2-yl)amino)-1,3,5-triazin-2-yl)methanesulfonamide] |
| 0.794 | CC(C)C[C@H](CO)Nc1nc(C[C@H](C)c2cc(Cl)ccc2F)nc(NS(C)(=O)=O)n1 (single isomer, unassigned) [Example 29, N-(4-((S*)-2-(5-Chloro-2-fluorophenyl)propyl)-6-(((R)-1-hydroxy-4-methylpentan-2-yl)amino)-1,3,5-triazin-2-yl)methanesulfonamide] |
| > 8.01 | CC(C)C[C@H](CO)Nc1nc(CC(C)(C)c2ccccc2)nc(NS(C)(=O)=O)n1 [Example 152, (R)—N-(4-((1-Hydroxy-4-methylpentan-2-yl)amino)-6-(2-methyl-2-phenylpropyl)-1,3,5-triazin-2-yl)methanesulfonamide] |
| 0.925 | CC(C)C[C@H](CO)Nc1nc(CC(C)c2ccc(C(F)(F)F)cc2)nc(NS(C)(=O)=O)n1 (stereo partly drawn) [Example 74, N-(4-(((R)-1-Hydroxy-4-methylpentan-2-yl)amino)-6-(2-(4-(trifluoromethyl)phenyl)propyl)-1,3,5-triazin-2-yl)methanesulfonamide] |
| 0.173 | CC(C)C[C@H](CO)Nc1nc(C[C@@H](C)c2c(F)cc(Cl)cc2F)nc(NS(C)(=O)=O)n1 (single isomer, unassigned) [Example 44, N-(4-((R*)-2-(4-Chloro-2,6-difluorophenyl)propyl)-6-(((R)-1-hydroxy-4-methylpentan-2-yl)amino)-1,3,5-triazin-2-yl)methanesulfonamide] |
| 0.204 | Cc1ccc(C(C)Cc2nc(N[C@@H](CO)CC(C)C)nc(NS(C)(=O)=O)n2)cc1F (stereo partly drawn) [Example 56, N-(4-(2-(3-Fluoro-4-methylphenyl)propyl)-6-(((R)-1-hydroxy-4-methylpentan-2-yl)amino)-1,3,5-triazin-2-yl)methanesulfonamide] |
| 0.15 | CC(C)C[C@H](CO)Nc1nc(CC(C)c2ccc(N3CCOCC3=O)cc2)nc(NS(C)(=O)=O)n1 (stereo partly drawn) [Example 118, N-(4-(((R)-1-Hydroxy-4-methylpentan-2-yl)amino)-6-(2-(4-(3-oxomorpholino)phenyl)propyl)-1,3,5-triazin-2-yl)methanesulfonamide] |
| 0.493 | CC(C)C[C@H](CO)Nc1nc(CC(c2ccccc2)C(F)(F)F)nc(NS(C)(=O)=O)n1 (stereo partly drawn) [Example 151, N-(4-(((R)-1-Hydroxy-4-methylpentan-2-yl)amino)-6-(3,3,3-trifluoro-2-phenylpropyl)-1,3,5-triazin-2-yl)methanesulfonamide] |
| > 10 | CC(C)C[C@H](CO)Nc1nc(CCC(F)(F)c2ccc(Cl)cc2)nc(NS(C)(=O)=O)n1 [Example 153, (R)—N-(4-(3-(4-Chlorophenyl)-3,3-difluoropropyl)-6-((1-hydroxy-4-methylpentan-2-yl)amino)-1,3,5-triazin-2-yl)methanesulfonamide] |
| 0.026 | CC(C)C[C@H](CO)Nc1nc(CC(C)c2ccc(CO)c(F)c2)nc(NS(C)(=O)=O)n1 (stereo partly drawn) [Example 133, N-(4-(2-(3-Fluoro-4-(hydroxymethyl)phenyl)propyl)-6-(((R)-1-hydroxy-4-methylpentan-2-yl)amino)-1,3,5-triazin-2-yl)methanesulfonamide] |
| 0.282 | CC(C)C[C@H](CO)Nc1nc(CC(C)c2ccc(C(=O)N(C)C)c(F)c2)nc(NS(C)(=O)=O)n1 (stereo partly drawn) [Example 116, 2-Fluoro-4-(1-(4-(((R)-1-hydroxy-4-methylpentan-2-yl)amino)-6-(methylsulfonamido)-1,3,5-triazin-2-yl)propan-2-yl)-N,N-dimethylbenzamide] |
| 0.153 | CC(C)C[C@H](CO)Nc1nc(CC(C)c2ccc(N3CCNCC3)cc2)nc(NS(C)(=O)=O)n1 (stereo partly drawn) [Example 54, N-(4-(((R)-1-Hydroxy-4-methylpentan-2-yl)amino)-6-(2-(4-(piperazin-1-yl)phenyl)propyl)-1,3,5-triazin-2-yl)methanesulfonamide] |
| 0.052 | CC(C)C[C@H](CO)Nc1nc(C[C@@H](C)c2ccc(Cl)c(F)c2F)nc(NS(C)(=O)=O)n1 (single isomer, unassigned) [Example 34, N-(4-((R*)-2-(4-Chloro-2,3-difluorophenyl)propyl)-6-(((R)-1-hydroxy-4-methylpentan-2-yl)amino)-1,3,5-triazin-2-yl)methanesulfonamide] |
| 0.335 | CCOc1ccc(C(C)Cc2nc(N[C@@H](CO)CC(C)C)nc(NS(C)(=O)=O)n2)cc1F (stereo partly shown) [Example 119] |
| 0.138 | CCOc1ccc([C@H](C)Cc2nc(N[C@@H](CO)CC(C)C)nc(NS(C)(=O)=O)n2)cn1 (single isomer, unassigned) [Example 27, N-(4-((R*)-2-(6-Ethoxypyridin-3-yl)propyl)-6-(((R)-1-hydroxy-4-methylpentan-2-yl)amino)-1,3,5-triazin-2-yl)methanesulfonamide] |
| 0.298 | Cc1ccc(C(C)Cc2nc(N[C@@H](CO)CC(C)C)nc(NS(C)(=O)=O)n2)cc1C (stereo partly drawn) [Example 70, N-(4-(2-(3,4-Dimethylphenyl)propyl)-6-(((R)-1-hydroxy-4-methylpentan-2-yl)amino)-1,3,5-triazin-2-yl)methanesulfonamide] |
| 0.113 | CC(C)C[C@H](CO)Nc1nc(CC(C)c2cc(Cl)ccc2O)nc(NS(C)(=O)=O)n1 (stereo partly drawn) [Example 107, N-(4-(2-(5-Chloro-2-hydroxyphenyl)propyl)-6-(((R)-1-hydroxy-4-methylpentan-2-yl)amino)-1,3,5-triazin-2-yl)methanesulfonamide] |
| 0.09 | COc1ccc(C(C)Cc2nc(N[C@@H](CO)CC(C)C)nc(NS(C)(=O)=O)n2)c2cccnc12 (stereo partly drawn) [Example 97, N-(4-(((R)-1-Hydroxy-4-methylpentan-2-yl)amino)-6-(2-(8-methoxyquinolin-5-yl)propyl)-1,3,5-triazin-2-yl)methanesulfonamide] |
| 0.958 | COc1ccc([C@@H](C)Cc2nc(N[C@@H](CO)CC(C)C)nc(NS(C)(=O)=O)n2)cc1F (single isomer, unassigned) [Example 20, N-(4-((S*)-2-(3-Fluoro-4-methoxyphenyl)propyl)-6-(((R)-1-hydroxy-4-methylpentan-2-yl)amino)-1,3,5-triazin-2-yl)methanesulfonamide] |
